Patent publication US10329304B2, “Compounds and methods for inhibition of hedgehog signaling and phosphodiesterase” (Vanderbilt University, priority 2014, dated 2019)
Entries after “also recorded” stand apart in the source; their conditions may differ.

Experiments:
NIH3T3 cells = experiment: Cell viability of parental NIH3T3 cells; assay type: cell-based
PDE4D3-AKAP450 = PDE4D3-AKAP450 (Homo sapiens, UniProt Q08499); experiment: PDE4D3 localization and co-immunoprecipitation with AKAP450; assay type: cell-based; settings: 5 μM
PDE4D3-AKAP450, sequence (Q08499 1-673 isoform Q08499-2): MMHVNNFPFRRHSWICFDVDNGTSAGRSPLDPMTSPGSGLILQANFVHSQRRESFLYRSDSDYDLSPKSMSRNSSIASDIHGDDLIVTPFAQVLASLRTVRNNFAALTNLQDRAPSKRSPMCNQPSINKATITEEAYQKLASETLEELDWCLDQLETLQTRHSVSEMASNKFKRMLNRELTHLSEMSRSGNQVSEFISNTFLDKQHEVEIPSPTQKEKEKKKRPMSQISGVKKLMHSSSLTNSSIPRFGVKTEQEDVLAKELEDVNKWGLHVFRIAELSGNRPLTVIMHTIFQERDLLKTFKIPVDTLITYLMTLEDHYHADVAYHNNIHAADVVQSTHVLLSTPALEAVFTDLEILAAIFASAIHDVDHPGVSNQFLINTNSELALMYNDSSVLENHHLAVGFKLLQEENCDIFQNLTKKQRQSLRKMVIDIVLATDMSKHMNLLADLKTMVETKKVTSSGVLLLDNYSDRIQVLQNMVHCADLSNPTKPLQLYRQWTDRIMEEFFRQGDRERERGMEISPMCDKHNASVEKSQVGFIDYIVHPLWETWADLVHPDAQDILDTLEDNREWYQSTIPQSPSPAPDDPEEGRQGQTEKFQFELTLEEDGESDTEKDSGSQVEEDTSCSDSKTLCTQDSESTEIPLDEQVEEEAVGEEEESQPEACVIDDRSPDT
PDE4D3-AKAP450, sequence (Q70FJ1 whole entry partner): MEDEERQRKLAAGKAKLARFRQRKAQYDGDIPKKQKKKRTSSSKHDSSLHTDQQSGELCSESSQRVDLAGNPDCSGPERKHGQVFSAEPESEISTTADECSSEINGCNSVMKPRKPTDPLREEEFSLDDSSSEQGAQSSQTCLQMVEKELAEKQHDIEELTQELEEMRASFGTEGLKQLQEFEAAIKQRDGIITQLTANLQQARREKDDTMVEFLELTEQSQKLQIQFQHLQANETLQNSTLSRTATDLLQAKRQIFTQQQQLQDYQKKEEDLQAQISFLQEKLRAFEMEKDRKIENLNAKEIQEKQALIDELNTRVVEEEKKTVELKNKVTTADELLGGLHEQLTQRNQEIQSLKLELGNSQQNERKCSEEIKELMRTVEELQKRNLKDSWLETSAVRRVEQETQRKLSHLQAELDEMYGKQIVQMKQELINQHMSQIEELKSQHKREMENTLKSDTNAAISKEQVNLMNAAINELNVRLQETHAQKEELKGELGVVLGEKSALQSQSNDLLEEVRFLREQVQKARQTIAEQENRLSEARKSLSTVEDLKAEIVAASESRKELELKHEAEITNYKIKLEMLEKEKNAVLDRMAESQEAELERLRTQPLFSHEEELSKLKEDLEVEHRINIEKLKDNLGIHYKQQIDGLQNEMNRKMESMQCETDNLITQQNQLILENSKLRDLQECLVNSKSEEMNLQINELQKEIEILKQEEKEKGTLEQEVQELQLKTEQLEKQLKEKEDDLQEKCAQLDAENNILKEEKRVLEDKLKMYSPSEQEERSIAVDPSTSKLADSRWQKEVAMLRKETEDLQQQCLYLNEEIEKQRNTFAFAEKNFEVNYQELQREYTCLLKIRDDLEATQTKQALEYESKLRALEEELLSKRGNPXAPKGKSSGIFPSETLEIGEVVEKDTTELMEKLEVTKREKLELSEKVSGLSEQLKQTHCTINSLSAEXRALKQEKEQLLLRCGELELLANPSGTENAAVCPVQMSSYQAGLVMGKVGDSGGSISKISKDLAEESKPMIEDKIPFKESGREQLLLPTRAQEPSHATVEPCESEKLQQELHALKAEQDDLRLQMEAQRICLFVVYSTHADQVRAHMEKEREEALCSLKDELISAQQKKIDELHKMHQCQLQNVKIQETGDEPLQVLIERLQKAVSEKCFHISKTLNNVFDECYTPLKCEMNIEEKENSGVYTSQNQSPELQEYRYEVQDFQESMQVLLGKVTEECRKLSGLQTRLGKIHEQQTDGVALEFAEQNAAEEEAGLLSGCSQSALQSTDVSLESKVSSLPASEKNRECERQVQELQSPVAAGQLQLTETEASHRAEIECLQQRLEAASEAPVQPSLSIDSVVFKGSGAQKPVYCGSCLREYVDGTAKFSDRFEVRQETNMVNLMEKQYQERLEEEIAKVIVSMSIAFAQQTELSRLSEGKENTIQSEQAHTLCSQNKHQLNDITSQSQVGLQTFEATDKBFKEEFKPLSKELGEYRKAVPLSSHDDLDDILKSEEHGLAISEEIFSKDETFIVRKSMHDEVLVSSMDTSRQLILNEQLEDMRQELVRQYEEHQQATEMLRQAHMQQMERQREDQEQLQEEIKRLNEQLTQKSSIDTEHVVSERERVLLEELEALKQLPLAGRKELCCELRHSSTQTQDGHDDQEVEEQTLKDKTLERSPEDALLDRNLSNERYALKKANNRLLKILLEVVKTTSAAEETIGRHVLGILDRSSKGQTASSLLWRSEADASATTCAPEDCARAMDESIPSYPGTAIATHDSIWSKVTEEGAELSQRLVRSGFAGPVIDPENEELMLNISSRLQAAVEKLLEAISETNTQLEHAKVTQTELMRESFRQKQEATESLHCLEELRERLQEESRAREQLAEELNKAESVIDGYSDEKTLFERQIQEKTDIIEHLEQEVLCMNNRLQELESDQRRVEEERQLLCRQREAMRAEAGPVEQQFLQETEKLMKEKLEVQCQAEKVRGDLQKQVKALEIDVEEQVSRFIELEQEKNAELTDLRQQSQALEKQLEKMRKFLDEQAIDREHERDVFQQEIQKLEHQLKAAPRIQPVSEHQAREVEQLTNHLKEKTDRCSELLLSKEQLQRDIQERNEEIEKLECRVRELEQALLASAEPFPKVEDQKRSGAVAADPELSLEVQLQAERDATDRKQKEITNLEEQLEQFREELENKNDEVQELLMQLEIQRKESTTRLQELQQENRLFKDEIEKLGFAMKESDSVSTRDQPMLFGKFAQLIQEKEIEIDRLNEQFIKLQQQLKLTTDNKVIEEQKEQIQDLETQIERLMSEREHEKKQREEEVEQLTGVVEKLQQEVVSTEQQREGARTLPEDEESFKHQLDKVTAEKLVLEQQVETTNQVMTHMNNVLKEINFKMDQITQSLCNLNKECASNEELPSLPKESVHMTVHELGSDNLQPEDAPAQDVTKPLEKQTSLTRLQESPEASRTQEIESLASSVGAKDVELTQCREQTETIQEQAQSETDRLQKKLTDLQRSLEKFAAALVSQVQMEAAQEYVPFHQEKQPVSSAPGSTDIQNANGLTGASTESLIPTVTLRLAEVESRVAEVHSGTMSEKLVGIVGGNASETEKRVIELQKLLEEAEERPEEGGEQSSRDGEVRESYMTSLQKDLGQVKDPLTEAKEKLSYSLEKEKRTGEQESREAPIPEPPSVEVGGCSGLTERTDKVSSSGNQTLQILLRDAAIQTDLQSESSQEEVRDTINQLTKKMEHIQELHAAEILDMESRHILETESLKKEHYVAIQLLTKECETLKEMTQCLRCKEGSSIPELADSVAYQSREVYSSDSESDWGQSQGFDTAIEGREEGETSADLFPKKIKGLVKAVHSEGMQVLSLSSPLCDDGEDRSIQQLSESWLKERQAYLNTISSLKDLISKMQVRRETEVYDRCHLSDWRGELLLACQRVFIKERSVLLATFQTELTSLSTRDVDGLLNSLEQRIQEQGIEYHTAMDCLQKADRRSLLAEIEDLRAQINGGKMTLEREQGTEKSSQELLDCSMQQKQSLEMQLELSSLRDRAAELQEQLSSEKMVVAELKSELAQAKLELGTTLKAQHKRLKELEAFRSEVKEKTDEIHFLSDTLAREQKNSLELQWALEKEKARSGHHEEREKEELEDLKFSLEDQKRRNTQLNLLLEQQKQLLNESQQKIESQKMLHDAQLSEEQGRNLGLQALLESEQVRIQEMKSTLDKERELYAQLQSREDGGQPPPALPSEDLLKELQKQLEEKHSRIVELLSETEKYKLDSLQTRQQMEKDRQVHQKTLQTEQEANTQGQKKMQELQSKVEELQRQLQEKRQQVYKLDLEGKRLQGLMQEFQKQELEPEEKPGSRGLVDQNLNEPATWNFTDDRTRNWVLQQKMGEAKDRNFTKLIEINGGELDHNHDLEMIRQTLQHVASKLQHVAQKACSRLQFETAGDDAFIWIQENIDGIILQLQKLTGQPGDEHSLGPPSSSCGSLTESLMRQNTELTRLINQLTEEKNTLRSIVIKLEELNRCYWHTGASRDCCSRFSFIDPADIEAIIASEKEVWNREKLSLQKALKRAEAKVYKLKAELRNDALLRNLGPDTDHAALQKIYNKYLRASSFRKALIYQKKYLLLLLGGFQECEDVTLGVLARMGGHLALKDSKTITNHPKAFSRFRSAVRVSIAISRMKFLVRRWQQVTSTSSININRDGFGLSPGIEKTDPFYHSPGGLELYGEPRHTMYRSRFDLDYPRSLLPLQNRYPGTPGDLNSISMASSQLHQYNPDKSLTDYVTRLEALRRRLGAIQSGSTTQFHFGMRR

## C=C(C)Cn1c(SCC(=O)c2cccs2)nc2sc3c(c2c1=O)CCCC3 [Eggmanone, 3-(2-methylallyl)-2-((2-oxo-2-(thiophen-2-yl)ethyl)thio)-5,6,7,8-tetrahydrobenzo[4,5]thieno[2,3-d]pyrimidine-4(3H)-one]
NIH3T3 cells
  Viability of NIH3T3 cells: had no effect on parental NIH3T3 cells
PDE4D3-AKAP450
  PDE4D3 localization / physical association with AKAP450: does not disrupt PDE4D3 localization; also recorded: did not disrupt PDE4D3 localization or physical association with AKAP450
